Data on 48 compounds can be found in patent US6872729B2, “Pyrimidinylbenzimidazole and triazinylbenzimidazole derivatives and agricultural/horticultural fungicides” (Kumiai Chemical Industry Co., Ltd., priority 1998, dated 2005).

This experiment relates to Erysiphe graminis. In words: Test for preventive effect on wheat powdery mildew. The following applies: wheat (Norin-61-go) seedlings, 500 ppm active ingredient, preventive treatment; diseased area of first leaves 10 days after inoculation with Erysiphe graminis. It is filed as in vivo. On the procedure:
Test for Preventive Effect on Wheat Powdery Mildew 9 Wheat seeds (variety: Norin-61-go) were sown in each 9 cm×9 cm polyvinyl chloride pot, grown in a greenhouse for 8 days, then treated with 10 ml per pot of aqueous solutions of wettable powders prepared in accordance with Formulation Example 2, at a concentration of 500 ppm in terms of the active ingredients and dried in the air. Then, the seedlings were inoculated with Erysiphe graminis spores by sprinkle over the plant and placed in a greenhouse of from 20 to 25° C. 10 days after the inoculation, the total diseases area of the first leaves in each pot was observed and evaluated on the basis of the standards shown in Table 67. [table]

As for `COc1nc(OC)nc(-n2c(C)nc3cc(C(C)(C)C)ccc32)n1` [Compound I-222], the Biological effectiveness result is “B (Diseased area of less than 25%)”.
Next, `COc1nc(OC)nc(-n2c(C)nc3cc(C(F)(F)F)ccc32)n1` [Compound I-225]: “A (No diseased area)”; `COc1ccc2c(c1)nc(C)n2-c1nc(OC)nc(OC)n1` [Compound I-226]: “A (No diseased area)”.
As to `COc1nc(OC)nc(-n2c(C)nc3cc(OC(F)(F)F)ccc32)n1` [Compound I-229], the Biological effectiveness result is on record as “A (No diseased area)”.
Regarding `COC(=O)c1ccc2c(c1)nc(C)n2-c1nc(OC)nc(OC)n1` [Compound I-232], the Biological effectiveness entry is reported as “B (Diseased area of less than 25%)”.
For `COc1nc(OC)nc(-n2c(C)nc3cc(C(C)=O)ccc32)n1` [Compound I-234] the value was “A (No diseased area)”; for `COc1nc(OC)nc(-n2c(C)nc3cc(C(=O)c4ccccc4)ccc32)n1` [Compound I-235], “A (No diseased area)”.
In the case of `COc1nc(OC)nc(-n2c(C)nc3cc(C#N)ccc32)n1` [Compound I-239], the Biological effectiveness result is on record as “A (No diseased area)”.
For `COc1nc(OC)nc(-n2c(C)nc3ccc(C)cc32)n1` [Compound I-242] the value was “A (No diseased area)”; for `COc1nc(OC)nc(-n2c(C)nc3c(C)cc(C)cc32)n1` [Compound I-250], “B (Diseased area of less than 25%)”.
Next, `COc1nc(OC)nc(-n2c(C)nc3cc(C)c(C)cc32)n1` [Compound I-251]: “A (No diseased area)”.
For `COc1cc(OC)nc(-n2c(Cl)nc3cc(F)ccc32)n1` [Compound I-255] the value was “A (No diseased area)”.
Regarding `COc1cc(OC)nc(-n2c(Cl)nc3cc(Cl)ccc32)n1` [Compound I-256], the Biological effectiveness entry is reported as “A (No diseased area)”.
Next, `COc1cc(OC)nc(-n2c(Cl)nc3cc(C(F)(F)F)ccc32)n1` [Compound I-259]: “A (No diseased area)”; `COc1ccc2c(c1)nc(Cl)n2-c1nc(OC)cc(OC)n1` [Compound I-260]: “A (No diseased area)”; `CCOc1ccc2c(c1)nc(Cl)n2-c1nc(OC)cc(OC)n1` [Compound I-261]: “B (Diseased area of less than 25%)”.
For `COc1cc(OC)nc(-n2c(Cl)nc3cc(OC(F)(F)F)ccc32)n1` [Compound I-263] the value was “A (No diseased area)”; for `COc1cc(OC)nc(-n2c(Cl)nc3ccc(Cl)cc32)n1` [Compound I-271], “A (No diseased area)”.
On to `COc1cc(OC)nc(-n2c(Cl)nc3ccc(C)cc32)n1` [Compound I-272], for which the Biological effectiveness result is reported as “A (No diseased area)”.
Next, `COc1nc(OC)nc(-n2c(Cl)nc3cc(C)ccc32)n1` [Compound I-279]: “A (No diseased area)”.
For `COc1cc(OC)nc(-n2c(C(F)(F)F)nc3cc(F)ccc32)n1` [Compound I-295] the value was “A (No diseased area)”; for `COc1cc(OC)nc(-n2c(C(F)(F)F)nc3cc(Cl)ccc32)n1` [Compound I-296], “A (No diseased area)”; for `COc1cc(OC)nc(-n2c(C(F)(F)F)nc3cc(C(F)(F)F)ccc32)n1` [Compound I-299], “A (No diseased area)”.
Regarding `COc1ccc2c(c1)nc(C(F)(F)F)n2-c1nc(OC)cc(OC)n1` [Compound I-300], the Biological effectiveness entry is “A (No diseased area)”.
For `CCOc1ccc2c(c1)nc(C(F)(F)F)n2-c1nc(OC)cc(OC)n1` [Compound I-301] the value was “A (No diseased area)”.
Take `COc1cc(OC)nc(-n2c(C(F)(F)F)nc3ccc(C)cc32)n1` [Compound I-307]: the Biological effectiveness entry was “A (No diseased area)”.
Consider `COc1nc(OC)nc(-n2c(C(F)(F)F)nc3cc(F)ccc32)n1` [Compound I-309], for which the Biological effectiveness result is recorded as “A (No diseased area)”.
Regarding `COc1nc(OC)nc(-n2c(C(F)(F)F)nc3cc(Cl)ccc32)n1` [Compound I-310], the Biological effectiveness result is listed as “A (No diseased area)”.
`COc1nc(OC)nc(-n2c(C(F)(F)F)nc3cc(Br)ccc32)n1` [Compound I-311]: the Biological effectiveness entry is listed as “A (No diseased area)”.
As for `CCc1ccc2c(c1)nc(C(F)(F)F)n2-c1nc(OC)nc(OC)n1` [Compound I-313], the Biological effectiveness result is “A (No diseased area)”.
For `CCCc1ccc2c(c1)nc(C(F)(F)F)n2-c1nc(OC)nc(OC)n1` [Compound I-314] the value was “A (No diseased area)”.
In the case of `COc1nc(OC)nc(-n2c(C(F)(F)F)nc3cc(C(C)C)ccc32)n1` [Compound I-315], the Biological effectiveness entry is on record as “B (Diseased area of less than 25%)”.
Next, `COc1nc(OC)nc(-n2c(C(F)(F)F)nc3cc(C(C)(C)C)ccc32)n1` [Compound I-316]: “B (Diseased area of less than 25%)”.
For the compound `COc1ccc2c(c1)nc(C(F)(F)F)n2-c1nc(OC)nc(OC)n1` [Compound I-318], the Biological effectiveness result is “A (No diseased area)”.
For `COc1nc(OC)nc(-n2c(C(F)(F)F)nc3cc(OC(F)(F)F)ccc32)n1` [Compound I-321] the value was “A (No diseased area)”.
For `COc1nc(OC)nc(-n2c(C(F)(F)F)nc3cc(I)ccc32)n1` [Compound I-327] the value was “A (No diseased area)”; for `CCc1nc2cc(F)ccc2n1-c1nc(OC)cc(OC)n1` [Compound I-332], “B (Diseased area of less than 25%)”; for `CCc1nc2cc(Cl)ccc2n1-c1nc(OC)cc(OC)n1` [Compound I-333], “A (No diseased area)”.
For `CCc1nc2cc(C)ccc2n1-c1nc(OC)cc(OC)n1` [Compound I-334] the value was “A (No diseased area)”.
On to `CCc1nc2cc(C(F)(F)F)ccc2n1-c1nc(OC)cc(OC)n1` [Compound I-335], for which the Biological effectiveness entry was “A (No diseased area)”.
For `CCc1nc2cc(OC)ccc2n1-c1nc(OC)cc(OC)n1` [Compound I-336] the value was “A (No diseased area)”; for `CCc1nc2cc(Cl)ccc2n1-c1nc(OC)nc(OC)n1` [Compound I-346], “A (No diseased area)”.
Regarding `CCCc1nc2cc(Cl)ccc2n1-c1nc(OC)nc(OC)n1` [Compound I-358], the Biological effectiveness result was “A (No diseased area)”.
For the compound `COc1nc(OC)nc(-n2c(C(C)C)nc3cc(Cl)ccc32)n1` [Compound I-359], the Biological effectiveness entry is “A (No diseased area)”.
In the case of `COc1nc(OC)nc(-n2c(C3CC3)nc3cc(Cl)ccc32)n1` [Compound I-360], the Biological effectiveness entry is listed as “B (Diseased area of less than 25%)”.
For `COc1ccc2c(c1)nc(N)n2-c1nc(OC)cc(OC)n1` [Compound I-364] the value was “A (No diseased area)”; for `COc1cc(OC)nc(-n2c(N)nc3ccc(C)cc32)n1` [Compound I-366], “A (No diseased area)”.
With `COc1nc(OC)nc(-n2c(N)nc3cc(C)ccc32)n1` [Compound I-369], the Biological effectiveness result was “B (Diseased area of less than 25%)”.
